According to patent US10131652B2, “Pyrimidinyloxy benzene derivatives as herbicides” (E. I. DU PONT DE NEMOURS AND COMPANY, priority 2014, dated 2018):

Assays:
Format in all cases: in vivo
[1] = test system: giant foxtail (Setaria faberii); assay: Test D pre-/postemergence plant response; details: Postemergence; for Foxtail, Giant plant response rating: scale 0 to 100 (0 no effect, 100 complete control); for Plant response rating, Foxtail, Giant: scale 0 to 100, 0 no effect, 100 complete control
Method in brief: (§1)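 0 = no effect, 100 = complete control: plants were scored this way by visual comparison with controls 13 to 15 days post-treatment. Application was preemergence to sown loam/sand pots or postemergence to 2–18 cm seedlings in peat-based mix.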

[2] = test system: waterhemp (common waterhemp, Amaranthus rudis); assay: Test D pre-/postemergence plant response; details: Postemergence; for Waterhemp plant response rating: scale 0 to 100 (0 no effect, 100 complete control); for Plant response rating, Waterhemp: scale 0 to 100, 0 no effect, 100 complete control
Method in brief: as §1

[3] = test system: barnyardgrass (Echinochloa crus-galli); assay: Test D pre-/postemergence plant response; details: Postemergence; for Barnyardgrass plant response rating: scale 0 to 100 (0 no effect, 100 complete control); for Plant response rating, Barnyardgrass: scale 0 to 100, 0 no effect, 100 complete control
Method in brief: as §1

soybean (Glycine max) = assay: Test D pre-/postemergence plant response; details: Postemergence; for Soybean plant response rating: scale 0 to 100 (0 no effect, 100 complete control); for Plant response rating, Soybean: scale 0 to 100, 0 no effect, 100 complete control
Method in brief: as §1

[4] = test system: lambsquarters (Chenopodium album); assay: Test D pre-/postemergence plant response; details: Postemergence; for Lambsquarters plant response rating: scale 0 to 100 (0 no effect, 100 complete control); for Plant response rating, Lambsquarters: scale 0 to 100, 0 no effect, 100 complete control
Method in brief: as §1

[5] = test system: blackgrass (Alopecurus myosuroides); assay: Test D pre-/postemergence plant response; details: Postemergence; for Blackgrass plant response rating: scale 0 to 100 (0 no effect, 100 complete control); for Plant response rating, Blackgrass: scale 0 to 100, 0 no effect, 100 complete control
Method in brief: as §1

[6] = test system: pigweed (Amaranthus retroflexus); assay: Test D pre-/postemergence plant response; details: Postemergence; for Pigweed plant response rating: scale 0 to 100 (0 no effect, 100 complete control); for Plant response rating, Pigweed: scale 0 to 100, 0 no effect, 100 complete control
Method in brief: as §1

[7] = test system: morningglory (Ipomoea coccinea); assay: Test D pre-/postemergence plant response; details: Postemergence; for Morningglory plant response rating: scale 0 to 100 (0 no effect, 100 complete control); for Plant response rating, Morningglory: scale 0 to 100, 0 no effect, 100 complete control
Method in brief: as §1

[8] = test system: large (Lg) crabgrass (Digitaria sanguinalis); assay: Test D pre-/postemergence plant response; details: Postemergence; for Crabgrass, Large plant response rating: scale 0 to 100 (0 no effect, 100 complete control); for Plant response rating, Crabgrass, Large: scale 0 to 100, 0 no effect, 100 complete control
Method in brief: as §1

[9] = test system: velvetleaf (Abutilon theophrasti); assay: Test D pre-/postemergence plant response; details: Postemergence; for Velvetleaf plant response rating: scale 0 to 100 (0 no effect, 100 complete control); for Plant response rating, Velvetleaf: scale 0 to 100, 0 no effect, 100 complete control
Method in brief: as §1

corn (Zea mays) = assay: Test D pre-/postemergence plant response; details: Postemergence; for Corn plant response rating: scale 0 to 100 (0 no effect, 100 complete control); for Plant response rating, Corn: scale 0 to 100, 0 no effect, 100 complete control
Method in brief: as §1

[10] = test system: Italian ryegrass (Lolium multiflorum); assay: Test D pre-/postemergence plant response; details: Postemergence; for Ryegrass, Italian plant response rating: scale 0 to 100 (0 no effect, 100 complete control); for Plant response rating, Ryegrass, Italian: scale 0 to 100, 0 no effect, 100 complete control
Method in brief: as §1

[11] = test system: ragweed (common ragweed, Ambrosia elatior); assay: Test B pre-/postemergence plant response
Method in brief: (§2)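 Scoring used a 0–100 scale (100 = complete control) by visual comparison with untreated plants after approximately 10 days in the greenhouse. Compounds, in surfactant-containing non-phytotoxic solvent, were sprayed onto soil at planting or onto 2–10 cm seedlings.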

kochia (Kochia scoparia) = assay: Test B pre-/postemergence plant response
Method in brief: as §2

[12] = test system: Italian ryegrass (Lolium multiflorum); assay: Test B pre-/postemergence plant response
Method in brief: as §2

[13] = 125 g ai/ha, postemergence, 0 to 100 scale, 0 no effect, 100 complete control
[14] = Postemergence, 500 g ai/ha, 0 to 100 scale (0 no effect, 100 complete control)
[15] = Preemergence, 125 g ai/ha, 0 to 100 scale where 0 is no effect and 100 is complete control
[16] = Preemergence, 500 g ai/ha, 0 to 100 scale where 0 is no effect and 100 is complete control

In the case of `Cn1nnc(-c2ccccc2Oc2ncc(Br)cn2)n1` [Compound 50], the “Foxtail, Giant plant response rating” value ([1]; 16 g ai/ha) is reported as 0, the “Foxtail, Giant plant response rating” value ([1]; 31 g ai/ha) is reported as 0 and the “Plant response rating, Foxtail, Giant” value ([1]; 62 g ai/ha) is reported as 5. The “Plant response rating, Foxtail, Giant” value ([1]; 125 g ai/ha) was 35, the “Waterhemp plant response rating” value ([2]; 16 g ai/ha) was 0 and the “Waterhemp plant response rating” value ([2]; 31 g ai/ha) was 0. The “Plant response rating, Waterhemp” value ([2]; 62 g ai/ha) was 0, the “Plant response rating, Waterhemp” value ([2]; 125 g ai/ha) was 40 and the “Barnyardgrass plant response rating” value ([3]; 16 g ai/ha) was 0. The “Barnyardgrass plant response rating” value ([3]; 31 g ai/ha) was 0, the “Plant response rating, Barnyardgrass” value ([3]; 62 g ai/ha) was 0 and the “Plant response rating, Barnyardgrass” value ([3]; 125 g ai/ha) was 0. The “Soybean plant response rating” value (soybean (Glycine max); 16 g ai/ha) was 5, the “Soybean plant response rating” value (soybean (Glycine max); 31 g ai/ha) was 5 and the “Plant response rating, Soybean” value (soybean (Glycine max); 62 g ai/ha) was 20. The “Plant response rating, Soybean” value (soybean (Glycine max); 125 g ai/ha) was 40, the “Lambsquarters plant response rating” value ([4]; 16 g ai/ha) was 0 and the “Lambsquarters plant response rating” value ([4]; 31 g ai/ha) was 5. For the same compound, the “Plant response rating, Lambsquarters” value ([4]; 62 g ai/ha) was 50, the “Plant response rating, Lambsquarters” value ([4]; 125 g ai/ha) was 5 and the “Blackgrass plant response rating” value ([5]; 16 g ai/ha) was 0. For the same compound, the “Blackgrass plant response rating” value ([5]; 31 g ai/ha) was 0, the “Plant response rating, Blackgrass” value ([5]; 62 g ai/ha) was 0 and the “Plant response rating, Blackgrass” value ([5]; 125 g ai/ha) was 0. For the same compound, the “Pigweed plant response rating” value ([6]; 16 g ai/ha) was 0, the “Pigweed plant response rating” value ([6]; 31 g ai/ha) was 5 and the “Plant response rating, Pigweed” value ([6]; 62 g ai/ha) was 5. For the same compound, the “Plant response rating, Pigweed” value ([6]; 125 g ai/ha) was 30, the “Morningglory plant response rating” value ([7]; 16 g ai/ha) was 0 and the “Morningglory plant response rating” value ([7]; 31 g ai/ha) was 0. For the same compound, the “Plant response rating, Morningglory” value ([7]; 62 g ai/ha) was 10, the “Plant response rating, Morningglory” value ([7]; 125 g ai/ha) was 20 and the “Crabgrass, Large plant response rating” value ([8]; 16 g ai/ha) was 0. For the same compound, the “Crabgrass, Large plant response rating” value ([8]; 31 g ai/ha) was 0, the “Plant response rating, Crabgrass, Large” value ([8]; 62 g ai/ha) was 0 and the “Plant response rating, Crabgrass, Large” value ([8]; 125 g ai/ha) was 5. The “Velvetleaf plant response rating” value ([9]; 16 g ai/ha) was 0, the “Velvetleaf plant response rating” value ([9]; 31 g ai/ha) was 0 and the “Plant response rating, Velvetleaf” value ([9]; 62 g ai/ha) was 0. For the same compound, the “Plant response rating, Velvetleaf” value ([9]; 125 g ai/ha) was 40, the “Corn plant response rating” value (corn (Zea mays); 16 g ai/ha) was 0 and the “Corn plant response rating” value (corn (Zea mays); 31 g ai/ha) was 0. The “Plant response rating, Corn” value (corn (Zea mays); 62 g ai/ha) was 0, the “Plant response rating, Corn” value (corn (Zea mays); 125 g ai/ha) was 5 and the “Ryegrass, Italian plant response rating” value ([10]; 16 g ai/ha) was 0. The “Ryegrass, Italian plant response rating” value ([10]; 31 g ai/ha) was 0, the “Plant response rating, Ryegrass, Italian” value ([10]; 62 g ai/ha) was 0 and the “Plant response rating, Ryegrass, Italian” value ([10]; 125 g ai/ha) was 0. For the same compound, the “Plant response rating, Ragweed” value [11, 13] was 20, the “Plant response rating, Ragweed” value [11, 14] was 60 and the “Plant response rating, Ragweed” value [11, 15] was 0. For the same compound, the “Plant response rating, Ragweed” value [11, 16] was 50, the “Plant response rating, Kochia” value (kochia (Kochia scoparia); [13]) was 60 and the “Plant response rating, Kochia” value (kochia (Kochia scoparia); [14]) was 80. The “Plant response rating, Kochia” value (kochia (Kochia scoparia); [15]) was 10, the “Plant response rating, Kochia” value (kochia (Kochia scoparia); [16]) was 60 and the “Plant response rating, Ryegrass, Italian” value [12, 13] was 0. The “Plant response rating, Ryegrass, Italian” value [12, 14] was 50, the “Plant response rating, Ryegrass, Italian” value [12, 15] was 20 and the “Plant response rating, Ryegrass, Italian” value [12, 16] was 50.
